From patent publication US20260008805A1, “ADENOSINE ANALOGS FOR THE TREATMENT OF DISEASE” (BIOINTERVENE, INC., priority 2022, published 2026)
Like-named read-outs stand apart in the source and are kept apart here.

What was measured:
[1] = target: T1, human A3 receptors (Homo sapiens, UniProt P0DMS8); assay: Adenosine receptor binding assay ([3H]HEMADO competition); conditions: Cheng-Prusoff, read-out: hA3 Ki
T1 construct: expressed in transfected cells; host or cells: HEK-293 cells, stably transfected; membrane preparation
T1 sequence (P0DMS8 1-318): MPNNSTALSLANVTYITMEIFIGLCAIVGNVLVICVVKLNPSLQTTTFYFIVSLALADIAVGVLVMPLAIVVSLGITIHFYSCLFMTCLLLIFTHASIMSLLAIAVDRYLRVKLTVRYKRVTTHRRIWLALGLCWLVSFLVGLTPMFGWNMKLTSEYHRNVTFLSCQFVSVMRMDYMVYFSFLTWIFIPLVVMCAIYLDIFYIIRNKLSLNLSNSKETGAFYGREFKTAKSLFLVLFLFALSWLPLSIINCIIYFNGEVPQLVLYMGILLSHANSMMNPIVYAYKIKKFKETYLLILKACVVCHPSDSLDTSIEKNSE
Excerpt: Materials and Reference Compounds: [^3H] HEMADO (obtained from (ARC, Cat: ART1456) and [3H] DPCPX (obtained from PerkinElmer Cat no. NET974250UC)). IB-MECA was obtained from Tocris (Bristol, UK) and N6-cyclopentyl adenosine (CPA) is obtained from Sigma-Alrich (Poole, UK). Cell culture media, G418 and hygromycin are obtained from Invitrogen (Paisley, UK). Fetal calf serum is obtained from Perbio Science (Cheshire, UK). All other reagents are obtained from Fisher Chemicals (Loughborough, UK).
The method followed is that of Yates L, Clark J H, Martin T J, James S, Broadley K J, Kidd E J. Radioligand binding and functional responses of ligands for human recombinant adenosine A3 receptors. Auton Autacoid Pharmacol. 2006; 26 (2): 191-200. Cells stably transfected with the human adenosine A3 or A1 receptor are grown in Dulbecco's modified Eagles medium with nutrient mixture F12 containing NaHCO3 and Glutamax. Media is supplemented with 10% fetal calf serum, geneticin (G418; 0.67 mg/mL), hygromycin (500 μg/mL) and adenosine deaminase (1 U/mL). Cells are maintained at 37° C. with 5% CO2 in air. Cells are harvested and homogenized in ice-cold Tris buffer [50 mM Tris, 150 mM NaCl, 1 mM ethylenediaminetetraacetic acid (EDTA), pH 7.4] supplemented with the peptidase inhibitors, 4-(2-aminoethyl)benzene sulfonylfluoride (1 mM) and bacitracin (0.1 mg/mL), using a Polytron homogenizer (3×10 s bursts). The homogenate is spun for 10 min (4° C.) at 500 g. The supernatant is retained and the pellet is re-suspended in the buffer, homogenized and spun as above. The combined supernatants are centrifuged for 15 min (4° C.) at 48,000 g. The resultant pellet is re-suspended in the buffer and centrifuged for a second time at 48,000 g. The membrane pellet is then suspended in Tris buffer containing no peptidase inhibitors or adenosine deaminase and stored at −80° C. at a protein concentration of 1 mg/mL.
Binding Assays: Radioligand-binding assays are performed using the adenosine A3 receptor agonist [^3H] HEMADO and the A1 receptor […] [^3H] DPCPX. Binding assays are conducted in a total volume of 100 μL containing a 50 mM Tris, pH 7.4 buffer with or without 10 mM MgCl2, 20 μg membranes and either 4.154 nM [3H] HEMADO (for the A3 receptor) or 1.6065 nM [^3H] DPCPX (for the A1 receptor). Assays are conducted at room temperature for 60 min (A1 receptor) or 120 min (A3 receptor) and terminated by the addition of 2 ml of ice-coldish buffer (50 mM Tris, pH 7.4 with or without 10 mM MgCl2) and rapid filtration over 0.03% polyethylenimine-treated Whatman GF/C filters using a Brandel cell harvester (Semat International Ltd., St Albans, UK). Filters are then ished three times with 2 ml of ice-cold buffer. The filter-bound radioactivity are counted using a Compugamma counter (LKB Wallac, Turku, Finland). Competition experiments are performed to investigate the ability of reference compounds and embodiments of the invention to inhibit [^3H] HEMADO binding. Non-specific binding are determined using the respective compound at its highest concentration.
Data Analysis: The Kd and Bmax values for binding data are calculated based upon the molar amounts of bound and free [^3H] HEMADO. […] IC50 and Ki values and Hill slopes for inhibition of the radioligand binding by the compounds of the invention are calculated from the ligand competition curves using the Excel spreadsheet and the Kd value calculated for either [^3H] HEMADO or [^3H] DPCPX. The results are expressed as a percent of control specific binding and as a percent inhibition of control specific binding obtained in the presence of the compounds of the invention. The IC50 values (concentration causing a half-maximal inhibition of control specific binding) and Hill coefficients (nH) are determined by non-linear regression analysis of the competition curves generated with mean replicate values using Hill equation curve fitting: […]

[2] = target: T2, human adenosine A3 receptor (Homo sapiens, UniProt P0DMS8); assay: Intracellular cAMP levels (inhibition of forskolin-stimulated cAMP production); format: cell-based; conditions: for EC50: CHO-K1 cells expressing human adenosine A3 receptor, forskolin 10 μM; for cAMP Efficacy (%): maximal response as percentage of the response produced by 100 nM IB-MECA
T2 construct: expressed in transfected cells; host or cells: CHO-K1 cells, stably transfected
T2 sequence (P0DMS8 1-318): T1 sequence (P0DMS8 1-318)
Excerpt: The method followed is that published in Yates L, Clark J H, Martin T J, James S, Broadley K J, Kidd E J. Radioligand binding and functional responses of ligands for human recombinant adenosine A3 receptors. Auton Autacoid Pharmacol. 2006 April; 26 (2): 191-200.
Materials and Cell Culture: Adenosine deaminase is obtained from Roche (Lewes, UK). Forskolin is obtained from Sigma-Aldrich (Poole, UK). The sources of other materials are provided above in Example 1. CHO-K1 cells stably transfected with the human adenosine A3 receptor are grown in Dulbecco's modified Eagles medium with nutrient mixture F12 containing NaHCO3 and Glutamax. Media is supplemented with 10% fetal calf serum, geneticin (G418; 0.67 mg/mL), hygromycin (500 μg/mL) and adenosine deaminase (1 U/mL). Cells are maintained at 37° C. with 5% CO2 in air.
CAMP Measurements: Intracellular cAMP production is measured directly using a non-acetylation cAMP enzyme immunoassay (Amersham Biosciences, Little Chalfont, UK). Cultured CHO cells expressing human adenosine A3 receptors are allowed to plate overnight in 96-well plates in culture medium containing adenosine deaminase. Twenty-four hours later, they are incubated with adenosine analogues or compounds of the invention (0.1 nM-1 μM) for 5 min at 37° C., followed by incubation with forskolin (10 μM) for 10 min. The cells are then lysed with 200 μL of lysis reagent 1 provided with the kit for 10 min to release intracellular CAMP. Aliquots of the supernatants are then transferred to a 96-well microtitre plate coated with donkey anti-rabbit IgG; 100-μL cAMP standards (12.5-3200 fmol/well) are also added to the microtitre plate; 100 μL of rabbit anti-cAMP antibody is added to all wells and incubated at 2-5° C. for 2 h. The antiserum is made up in lysis reagent 2, which sequesters the key component in lysis reagent 1 and ensures that CAMP is free for subsequent analysis. Then 50 μL of cAMP peroxidase conjugate is added to all wells and left to incubate for 60 min at 2-5° C. to allow competition for the antibody between the un-labelled and horse radish peroxidase (HRP)-labelled cAMP. Wells are then ished with buffer and 150 μL of enzyme substrate containing 3,3′,5,5′-tetramethylbenzidine/hydrogen peroxide in 20% (v/v) dimethylformamide is added to each well and left to incubate for 60 min on a Titramax 100 microtitre plate shaker (Heidolph Instruments, Schwabach, Germany) at room temperature for color development. The reaction is stopped by the addition of 100 μL of 1 M sulfuric acid and the optical density (OD) read at 450 nm on a spectrophotometric MRX microplate reader (Dynex Technologies, Chantilly, VA, USA).
Analyses: Each sample/standard was analyzed in duplicate and the resulting OD values averaged. The percent bound (B/B0) for each standard and sample was calculated using the following relationship:
[formula] • where B is the specific OD for standard/sample and B0 is the specific OD for the zero standard. A standard curve was generated by plotting % B/B0 as a function of the log fmol cAMP standard per well. The fmol per well value for cAMP in each sample was then read from the graph. The results are expressed as a percent of control agonist response: (measured response/control response)*100 in the presence of the compounds of the invention. Concentration-response curves for inhibition of cAMP production were constructed for all compounds of the invention and reference compounds. The EC50 values (concentration producing a half-maximal response) were determined by non-linear regression analysis of the concentration-response curves generated with mean replicate values using Hill equation curve fitting, according to the equation:
[formula] • where Y=response, A=left asymptote of the curve, D=right asymptote of the curve, C=compound concentration, and C50=EC50, and nH=slope factor. […]

[3] = Table 2, membranes of HEK-293 cells expressing human A3 receptor
[4] = Table 2, # = average between two data points
[5] = Table 1, membranes of HEK-293 cells expressing human A3 receptor

Structure (SMILES) | Ki [1, 3] [nM] | EC50 [2, 4] [nM] | cAMP Efficacy (%) [2, 4] | other results
CC1Cc2c(Cl)nc3c(ncn3[C@H]3[C@H](O)[C@H](O)[C@]4(CO)C[C@H]34)c2N1 (some centres unmarked) [3A*] | 65.7 | – | – | –
CNC(=O)[C@@]12C[C@@H]1[C@@H](n1cnc3c4c(c(Cl)nc31)CC(C)N4)[C@H](O)[C@@H]2O (some centres unmarked) [5A*] | 3.84 | 0.82 | 105.62% | –
CNC(=O)[C@@]12C[C@@H]1[C@@H](n1cnc3c4c(c(Cl)nc31)C(O)CC(C)N4)[C@H](O)[C@@H]2O (some centres unmarked) [8A* and 8B*] | 5.84 | 6 | 107.96% | –
O[C@H]1[C@H](n2cnc3c4[nH]c(Cc5ccccc5)cc4c(Cl)nc32)[C@H]2CC2[C@H]1O (some centres unmarked) [9A*] | 5.34 | 2.15 | 74.92% | –
CNC(=O)[C@@]12C[C@@H]1[C@@H](n1cnc3c4c(c(Cl)nc31)CCC(C)N4)[C@H](O)[C@@H]2O (some centres unmarked) [10A*] | 2 | 0.48 | 105.25% | –
CNC(=O)[C@@]12C[C@@H]1[C@@H](n1cnc3c4c(c(Cl)nc31)C(=O)CC(C)N4)[C@H](O)[C@@H]2O (some centres unmarked) [11A*] | 3.36 | – | – | –
CC1Cc2c(Cl)nc3c(ncn3[C@H]3[C@H](O)[C@H](O)C4C[C@@H]43)c2N1 (some centres unmarked) [12A*] | 14.8 | 11.4 | 63.56% | –
CC1CC(=O)c2c(Cl)nc3c(ncn3[C@@H]3[C@@H](O)[C@@H](O)[C@@]4(CO)C[C@@H]34)c2N1 (some centres unmarked) [13A*] | 24.1 | – | – | –
Cc1cc2cnc3c(ncn3[C@H]3[C@H](O)[C@H](O)C4C[C@@H]43)c2[nH]1 (some centres unmarked) [14A*] | 2.56 | 2.03 | 87.04% | –
CC1CCc2c(Cl)nc3c(ncn3[C@H]3[C@H](O)[C@H](O)C4C[C@@H]43)c2N1 (some centres unmarked) [16A*] | 45.7 | 5.36 | 55.74% | –
Cn1nnc([C@@]23C[C@@H]2[C@@H](n2cnc4c5[nH]c(C(F)F)cc5c(Cl)nc42)[C@H](O)[C@@H]3O)n1 [Compound 1B] | – | – | – | Ki [1, 5]: 1.09 nM; EC50 ([2]; Table 1): 1 nM; cAMP Efficacy (%) ([2]; Table 1): 5%
Cc1cc2c(Cl)nc3c(ncn3[C@H]3[C@H](O)[C@H](O)[C@]4(c5ncnn5C)C[C@H]34)c2[nH]1 [Compound 7B] | – | – | – | Ki [1, 5]: 151 nM
CCNc1cc(Cl)nc2c1ncn2[C@H]1[C@H](O)[C@H](O)[C@]2(c3nnnn3C)C[C@H]12 [Compound 11B] | – | – | – | Ki [1, 5]: > 806 nM

Further lines, with some results ahead:

Ki [1, 3] [nM] | EC50 [2, 4] [nM] | cAMP Efficacy (%) [2, 4] | Structure (SMILES) | other results
1.79 | – | – | CNC(=O)[C@H]1O[C@@H](n2cnc3c4[nH]c(C)cc4c(Cl)nc32)[C@H](O)[C@@H]1O [1A*] | –
0.543 | – | – | CNC(=O)[C@@]12C[C@@H]1[C@@H](n1cnc3c4[nH]c(C)cc4c(Cl)nc31)[C@H](O)[C@@H]2O [2A*] | –
1.09 | – | – | Cc1cc2c(C#N)nc3c(ncn3[C@H]3[C@H](O)[C@H](O)C4C[C@@H]43)c2[nH]1 (some centres unmarked) [4A*] | –
1.33 | 0.38 | 102.76% | Cc1cc2c(Cl)nc3c(ncn3[C@@H]3O[C@H](CO)[C@@H](O)[C@H]3O)c2[nH]1 [6A*] | –
0.619 | 0.91 | 47.98% | Cc1cc2c(C#CC3CC3)nc3c(ncn3[C@H]3[C@H](O)[C@H](O)C4C[C@@H]43)c2[nH]1 (some centres unmarked) [7A*] | –
2.27 | 0.2 | 94.66^# % | Cc1cc2c(Cl)nc3c(ncn3[C@H]3[C@H](O)[C@H](O)C4C[C@@H]43)c2[nH]1 (some centres unmarked) [15A*] | –
36 | – | – | CCOc1nc2c(ncn2[C@H]2[C@H](O)[C@H](O)C3C[C@@H]32)c2[nH]c(C)cc12 (some centres unmarked) [21A*] | –
1.8 | – | – | Cc1nc2c(Cl)nc3c(ncn3[C@H]3[C@H](O)[C@H](O)C4C[C@@H]43)c2[nH]1 (some centres unmarked) [22A*] | –
0.916 | – | – | O[C@H]1[C@H](n2cnc3c4[nH]c(C(F)F)cc4c(Cl)nc32)[C@H]2CC2[C@H]1O (some centres unmarked) [24A*] | –
24.2 | 4.15 | 96.54% | Cc1cc2c(Cl)nc3c(ncn3[C@H]3[C@H](O)[C@H](O)[C@]4(C(N)=O)C[C@H]34)c2[nH]1 [25A*] | –
98 | 100 | 5% | Cc1cc2c(Cl)nc3c(ncn3[C@H]3[C@H](O)[C@H](O)[C@]4(C#N)C[C@H]34)c2[nH]1 [26A*] | –
